Assay results published in BigSolDB 2.1.

CCC[C@@H]1C[C@@H](C(=O)N[C@@H]([C@H]2O[C@H](SC)[C@H](O)[C@H]3OC(C)(C)O[C@H]32)[C@H](C)Cl)N(C)C1
solubility (mole fraction)
Conditions | 273.15 K | 278.15 K | 283.15 K | 288.15 K | 293.15 K | 298.15 K | 303.15 K | 308.15 K | 313.15 K
in acetone | 0.0112 | 0.0132 | 0.0164 | 0.0195 | 0.024 | 0.0283 | 0.0348 | 0.0425 | 0.0502
in acetonitrile | 0.0032 | 0.004 | 0.005 | 0.0063 | 0.0078 | 0.0098 | 0.0123 | 0.0153 | 0.0189
in ethanol | 0.0146 | 0.0179 | 0.0208 | 0.0243 | 0.0292 | 0.0352 | 0.0423 | 0.0506 | 0.0594
in ethyl acetate | 0.0075 | 0.0093 | 0.0114 | 0.0143 | 0.0175 | 0.0215 | 0.026 | 0.0319 | 0.0388
in isobutanol | 0.0139 | 0.0175 | 0.022 | 0.0274 | 0.0334 | 0.0409 | 0.0491 | 0.0584 | 0.0696
in isopropanol | 0.0102 | 0.0124 | 0.0149 | 0.018 | 0.022 | 0.0266 | 0.0324 | 0.0393 | 0.0468
in methanol | 0.0212 | 0.0255 | 0.0306 | 0.0351 | 0.0408 | 0.0481 | 0.0554 | 0.0651 | 0.0746
in methyl acetate | 0.0087 | 0.0102 | 0.0132 | 0.0162 | 0.0198 | 0.024 | 0.0293 | 0.0355 | 0.042
in n-butanol | 0.0166 | 0.0213 | 0.0272 | 0.0325 | 0.0391 | 0.0478 | 0.0571 | 0.0672 | 0.0794
in n-propanol | 0.015 | 0.0189 | 0.0238 | 0.0294 | 0.0363 | 0.0428 | 0.0529 | 0.0637 | 0.0751
in n-propyl acetate | 0.0065 | 0.008 | 0.0106 | 0.0124 | 0.0152 | 0.0183 | 0.0223 | 0.0283 | 0.0347
in sec-butanol | 0.0229 | 0.0282 | 0.0344 | 0.0413 | 0.0507 | 0.0597 | 0.0709 | 0.0813 | 0.0947
